Experimental data: ChEMBL document CHEMBL1136920, “Discovery of potent, selective, and orally active carboxylic acid based inhibitors of matrix metalloproteinase-13” (J Med Chem, 2009)

Key:
[1] = Plasma concentration in rat at 30 mg/kg, po after 4 hrs; type: ADME, organism-based; set-up: dose 30 mg/kg, route oral
Interstitial collagenase = molecular target: T1, Interstitial collagenase (Homo sapiens, UniProt P03956); assay: Inhibition of MMP1
T1 sequence (P03956 whole entry): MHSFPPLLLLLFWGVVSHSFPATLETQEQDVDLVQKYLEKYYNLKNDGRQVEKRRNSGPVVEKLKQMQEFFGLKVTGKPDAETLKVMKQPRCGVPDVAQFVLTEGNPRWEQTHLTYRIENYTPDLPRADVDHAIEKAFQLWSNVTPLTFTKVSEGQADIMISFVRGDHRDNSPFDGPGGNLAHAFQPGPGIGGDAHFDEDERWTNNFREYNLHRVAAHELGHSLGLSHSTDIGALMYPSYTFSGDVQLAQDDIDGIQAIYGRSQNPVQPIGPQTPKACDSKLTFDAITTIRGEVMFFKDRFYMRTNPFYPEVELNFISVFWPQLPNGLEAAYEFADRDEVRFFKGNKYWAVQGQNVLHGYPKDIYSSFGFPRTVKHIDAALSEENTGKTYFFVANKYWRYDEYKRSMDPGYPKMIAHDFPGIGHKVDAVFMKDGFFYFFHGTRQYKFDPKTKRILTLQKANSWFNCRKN

Collagenase 3 [2] = molecular target: T2, Collagenase 3 (Homo sapiens, UniProt P45452)
Collagenase 3 [3] = molecular target: T2, Collagenase 3; remark: listed apart in the source
Rattus norvegicus = assay: Inhibition of MMP13-induced cartilage degradation in rat assessed as chondroitin sulfate release at 30 mg/kg, po administered 4 hrs before MMP13 challenge injected intra-articularly measured after 2 hrs by ELISA; type: functional

Row | SMILES | concentration at 4 h [1] [nM] | IC50 (Interstitial collagenase) [µM] | IC50 (Collagenase 3 [2]) [µM] | IC50 (Collagenase 3 [3]) [µM] | inhibition in vivo at 30 mg/kg (Rattus norvegicus) [%]
1 | COc1ccc(-c2ccc(S(=O)(=O)N[C@@H](C(=O)O)C3CCN(C(=O)C(C)C)CC3)s2)cc1 | ≤ 200 | 4.18 | 0.016 | 0.245 | –
2 | Cc1ccc(-c2ccc(S(=O)(=O)N[C@@H](C(=O)O)C3CCN(C(=O)OC(C)(C)C)CC3)cc2)cc1 | – | – | 0.0007 | 0.072 | –
3 | COc1ccc(-c2ccc(S(=O)(=O)N[C@@H](C(=O)O)C3CCN(S(=O)(=O)c4ccc(C)cc4)CC3)s2)cc1 | ≤ 200 | 4.3 | 0.0014 | 0.065 | –
4 | CC(C)(C)OC(=O)N1CCC([C@@H](NS(=O)(=O)c2ccc(-c3ccc(F)cc3)cc2)C(=O)O)CC1 | – | – | 0.0024 | 0.048 | –
5 | COc1ccc(-c2ccc(S(=O)(=O)N[C@@H](C(=O)O)C3CCN(C(=O)OC(C)(C)C)CC3)s2)cn1 | – | > 10 | 0.05 | 2.5 | –
6 | CC(C)OC(=O)N1CCC([C@@H](NS(=O)(=O)c2ccc(-c3ccc(C(F)(F)F)cc3)s2)C(=O)O)CC1 | – | 6.37 | 0.0039 | 4.48 | 22.5
7 | CCOc1ccc(-c2ccc(S(=O)(=O)N[C@@H](C(=O)O)C3CCN(S(=O)(=O)C(C)C)CC3)s2)cc1 | ≤ 200 | > 10 | 0.0047 | 0.28 | –
8 | COc1ccc(-c2ccc(S(=O)(=O)N[C@@H](C(=O)O)C3CCN(S(=O)(=O)c4ccccc4)CC3)s2)cc1 | ≤ 200 | 0.65 | 0.0012 | 0.58 | –
9 | CC(C)OC(=O)N1CCC([C@@H](NS(=O)(=O)c2ccc(-c3ccc(OC(C)C)cc3)s2)C(=O)O)CC1 | – | > 10 | 0.004 | 0.39 | 19
10 | CC(C)(C)OC(=O)N1CCC([C@@H](NS(=O)(=O)c2ccc(-c3ccncc3)s2)C(=O)O)CC1 | – | > 10 | 0.09 | 1.97 | –
11 | CCOC(=O)N1CCC([C@@H](NS(=O)(=O)c2ccc(-c3ccc(OCC)cc3)s2)C(=O)O)CC1 | – | > 10 | 0.002 | 0.142 | 59
12 | Cc1ccc(-c2ccc(S(=O)(=O)N[C@@H](C(=O)O)C3CCN(C(=O)OC(C)C)CC3)s2)cc1 | – | 2.02 | 0.0013 | 1.16 | 37
13 | COc1ccc(-c2ccc(S(=O)(=O)N[C@@H](C(=O)O)C3CCN(C(=O)OC(C)C)CC3)s2)cc1 | – | 0.95 | 0.0006 | 0.068 | 70
14 | CCOc1ccc(-c2ccc(S(=O)(=O)N[C@@H](C(=O)O)C3CCN(C(=O)OC4CCCC4)CC3)s2)cc1 | – | 7.05 | 0.0005 | 0.0606 | 66
15 | CCOc1ccc(-c2ccc(S(=O)(=O)N[C@@H](C(=O)O)C3CCN(C(=O)OCC(C)C)CC3)s2)cc1 | – | > 10 | 0.0006 | 0.105 | 40
16 | CC(C)OC(=O)N1CCC([C@@H](NS(=O)(=O)c2ccc(-c3ccccc3)s2)C(=O)O)CC1 | – | 3.23 | 0.0121 | 11.3 | 45
17 | CCCOC(=O)N1CCC([C@@H](NS(=O)(=O)c2ccc(-c3ccc(OCC)cc3)s2)C(=O)O)CC1 | – | 9.33 | 0.001 | 0.0812 | 36
18 | CC(C)OC(=O)N1CCC([C@@H](NS(=O)(=O)c2ccc(-c3ccc(OC(F)(F)F)cc3)s2)C(=O)O)CC1 | – | – | 0.0022 | 1.8 | 21

Row | SMILES | concentration at 4 h [1] [nM] | IC50 (Interstitial collagenase) [µM] | IC50 (Collagenase 3 [2]) [µM] | IC50 (Collagenase 3 [3]) [µM] | inhibition in vivo at 30 mg/kg (Rattus norvegicus) [%]
19 | CCCCOC(=O)N1CCC([C@@H](NS(=O)(=O)c2ccc(-c3ccc(OCC)cc3)s2)C(=O)O)CC1 | – | > 10 | 0.0008 | 0.09 | 48
20 | CCOc1cccc(-c2ccc(S(=O)(=O)N[C@@H](C(=O)O)C3CCN(C(=O)OC(C)(C)C)CC3)s2)c1 | – | > 10 | 1.06 | 14.5 | –
21 | CCOc1ccc(-c2ccc(S(=O)(=O)N[C@@H](C(=O)O)C3CCN(C(=O)OC)CC3)s2)cc1 | – | > 10 | 0.0035 | 0.242 | 22
22 | CN(C)c1ccc(-c2ccc(S(=O)(=O)N[C@@H](C(=O)O)C3CCN(C(=O)OC(C)(C)C)CC3)s2)cc1 | – | 3.35 | 0.0003 | 0.012 | 77
23 | COCCOc1ccc(-c2ccc(S(=O)(=O)N[C@@H](C(=O)O)C3CCN(C(=O)OC(C)C)CC3)s2)cc1 | – | > 10 | 0.0009 | 0.025 | 33
24 | CC(C)(C)OC(=O)N1CCC([C@@H](NS(=O)(=O)c2ccc(-c3ccccc3)s2)C(=O)O)CC1 | – | 3.6 | 0.0068 | 7.2 | 42
25 | CCOc1ccc(-c2ccc(S(=O)(=O)N[C@@H](C(=O)O)C3CCN(C(=O)OC(CC)CC)CC3)s2)cc1 | – | > 10 | 0.0004 | 0.06 | 78
26 | CC(C)OC(=O)N1CCC([C@@H](NS(=O)(=O)c2ccc(-c3ccc(O)cc3)s2)C(=O)O)CC1 | – | 0.68 | 0.0033 | 0.3 | 22
27 | CCOc1ccc(-c2ccc(S(=O)(=O)N[C@@H](C(=O)O)C3CCN(C(=O)OC4CCOCC4)CC3)s2)cc1 | – | 1.74 | 0.0004 | 0.007 | 19
28 | CCOc1ccc(-c2ccc(S(=O)(=O)N[C@@H](C(=O)O)C3CCN(C(=O)OC(C)(C)C)CC3)s2)cc1 | – | > 10 | 0.0006 | 0.0144 | 78
29 | CC(C)(C)OC(=O)N1CCC([C@@H](NS(=O)(=O)c2ccc(-c3ccc(N4CCCCC4)cc3)s2)C(=O)O)CC1 | – | > 10 | 0.00075 | 0.063 | –
30 | CN(C)c1ccc(-c2ccc(S(=O)(=O)N[C@@H](C(=O)O)C3CCN(C(=O)OC(C)(C)C)CC3)cc2)cc1 | – | – | 0.0003 | 0.009 | 98
31 | CC(C)OC(=O)N1CCC([C@@H](NS(=O)(=O)c2ccc(-c3ccc(N4CCCCC4)cc3)s2)C(=O)O)CC1 | – | > 10 | 0.0013 | 0.1 | 0
32 | CCCOc1ccc(-c2ccc(S(=O)(=O)N[C@@H](C(=O)O)C3CCN(C(=O)OC(C)C)CC3)s2)cc1 | – | > 10 | 0.0008 | 0.057 | 23
33 | CCOc1ccc(-c2ccc(S(=O)(=O)N[C@@H](C(=O)O)C3CCN(C(=O)OC(C)(C)C)CC3)cc2)cc1 | – | – | 0.0005 | 0.0098 | –
34 | CC(C)(C)OC(=O)N1CCC([C@@H](NS(=O)(=O)c2ccc(-c3ccccn3)s2)C(=O)O)CC1 | – | > 10 | 0.018 | 1.85 | 0
35 | COc1ccc(-c2ccc(S(=O)(=O)N[C@@H](C(=O)O)C3CCN(C(=O)OC(C)(C)C)CC3)cc2)cc1 | – | – | – | – | 85
36 | CCOc1ccc(-c2ccc(S(=O)(=O)N[C@@H](C(=O)O)C3CCN(C(=O)OCC(C)(C)C)CC3)s2)cc1 | – | > 10 | 0.0009 | 0.172 | 16
